pIC50: −log10 of the molar value. ≈ marks a conversion by molar mass, not a printed value.
Key:
[1] = high-throughput solubility pH 6.8; assay type: physicochemical; conditions: high-throughput assay format, read-out: HT sol. pH 6.8
[2] = metabolite profile in human hepatocytes; assay type: in vitro ADME; conditions: 10 μM of 1 for 4 h, UV 250 nm, normalized to largest peak
hr Al2A ag = target: T1, hr Al2A ag (Homo sapiens, UniProt P08913); assay: receptor profile (Table S4); assay type: biochemical
T1 sequence (P08913 1-465): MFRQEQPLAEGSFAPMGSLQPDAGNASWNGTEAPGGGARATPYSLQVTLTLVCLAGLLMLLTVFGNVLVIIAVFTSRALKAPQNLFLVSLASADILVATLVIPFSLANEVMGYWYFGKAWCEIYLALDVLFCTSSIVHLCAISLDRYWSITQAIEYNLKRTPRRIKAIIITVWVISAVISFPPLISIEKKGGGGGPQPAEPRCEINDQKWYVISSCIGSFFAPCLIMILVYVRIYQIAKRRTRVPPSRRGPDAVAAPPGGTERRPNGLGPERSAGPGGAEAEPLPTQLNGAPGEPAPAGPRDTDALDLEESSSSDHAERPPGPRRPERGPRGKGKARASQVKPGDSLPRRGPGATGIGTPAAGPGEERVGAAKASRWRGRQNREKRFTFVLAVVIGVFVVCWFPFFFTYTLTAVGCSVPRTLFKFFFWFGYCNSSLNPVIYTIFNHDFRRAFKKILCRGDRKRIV

hr Alpha2C = target: T2, hr Alpha2C (Homo sapiens, UniProt P18825); assay: receptor profile (Table S4); assay type: binding
T2 sequence (P18825 1-462): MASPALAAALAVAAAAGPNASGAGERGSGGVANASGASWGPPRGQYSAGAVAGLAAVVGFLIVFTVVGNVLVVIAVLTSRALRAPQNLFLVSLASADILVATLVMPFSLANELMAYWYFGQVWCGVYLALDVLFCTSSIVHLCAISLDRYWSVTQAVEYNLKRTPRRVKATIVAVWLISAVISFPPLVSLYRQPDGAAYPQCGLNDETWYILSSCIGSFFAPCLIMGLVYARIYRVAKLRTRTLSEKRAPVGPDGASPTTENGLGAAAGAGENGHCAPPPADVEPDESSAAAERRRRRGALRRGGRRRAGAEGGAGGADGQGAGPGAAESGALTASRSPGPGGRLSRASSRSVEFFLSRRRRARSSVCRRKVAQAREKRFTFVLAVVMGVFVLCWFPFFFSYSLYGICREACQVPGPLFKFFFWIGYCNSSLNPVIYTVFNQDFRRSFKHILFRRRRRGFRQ

hr Beta1 = hr Beta1 (Homo sapiens, UniProt P08588); assay: receptor profile (Table S4); assay type: binding
hr D1 ag = hr D1 ag (Homo sapiens, UniProt P21728); assay: receptor profile (Table S4); assay type: biochemical
hr M3 = hr M3 (Homo sapiens, UniProt P20309); assay: receptor profile (Table S4); assay type: binding
ov COX-1 = target: T3, ov COX-1 (Ovis aries, UniProt P05979); assay: receptor profile (Table S4); assay type: biochemical, ovine
T3 sequence (P05979 25-600): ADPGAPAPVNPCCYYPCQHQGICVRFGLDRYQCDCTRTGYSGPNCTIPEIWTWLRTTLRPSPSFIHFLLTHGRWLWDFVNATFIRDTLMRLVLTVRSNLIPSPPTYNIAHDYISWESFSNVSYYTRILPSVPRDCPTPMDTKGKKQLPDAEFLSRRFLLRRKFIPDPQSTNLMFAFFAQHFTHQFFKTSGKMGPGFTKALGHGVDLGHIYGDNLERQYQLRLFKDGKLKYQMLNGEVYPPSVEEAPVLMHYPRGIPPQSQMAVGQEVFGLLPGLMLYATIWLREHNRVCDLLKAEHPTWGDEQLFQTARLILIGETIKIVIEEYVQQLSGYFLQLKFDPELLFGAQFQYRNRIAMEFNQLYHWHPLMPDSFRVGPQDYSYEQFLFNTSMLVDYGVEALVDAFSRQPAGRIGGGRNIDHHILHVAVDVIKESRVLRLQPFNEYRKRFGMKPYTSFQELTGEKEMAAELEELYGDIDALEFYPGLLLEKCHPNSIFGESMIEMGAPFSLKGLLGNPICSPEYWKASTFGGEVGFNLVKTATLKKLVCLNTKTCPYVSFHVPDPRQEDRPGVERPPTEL

hERG = hERG (Homo sapiens, UniProt Q12809); assay: hERG manual patch clamp assay; conditions: read-out: hERG channel IC50
hERG, sequence (Q12809 whole entry): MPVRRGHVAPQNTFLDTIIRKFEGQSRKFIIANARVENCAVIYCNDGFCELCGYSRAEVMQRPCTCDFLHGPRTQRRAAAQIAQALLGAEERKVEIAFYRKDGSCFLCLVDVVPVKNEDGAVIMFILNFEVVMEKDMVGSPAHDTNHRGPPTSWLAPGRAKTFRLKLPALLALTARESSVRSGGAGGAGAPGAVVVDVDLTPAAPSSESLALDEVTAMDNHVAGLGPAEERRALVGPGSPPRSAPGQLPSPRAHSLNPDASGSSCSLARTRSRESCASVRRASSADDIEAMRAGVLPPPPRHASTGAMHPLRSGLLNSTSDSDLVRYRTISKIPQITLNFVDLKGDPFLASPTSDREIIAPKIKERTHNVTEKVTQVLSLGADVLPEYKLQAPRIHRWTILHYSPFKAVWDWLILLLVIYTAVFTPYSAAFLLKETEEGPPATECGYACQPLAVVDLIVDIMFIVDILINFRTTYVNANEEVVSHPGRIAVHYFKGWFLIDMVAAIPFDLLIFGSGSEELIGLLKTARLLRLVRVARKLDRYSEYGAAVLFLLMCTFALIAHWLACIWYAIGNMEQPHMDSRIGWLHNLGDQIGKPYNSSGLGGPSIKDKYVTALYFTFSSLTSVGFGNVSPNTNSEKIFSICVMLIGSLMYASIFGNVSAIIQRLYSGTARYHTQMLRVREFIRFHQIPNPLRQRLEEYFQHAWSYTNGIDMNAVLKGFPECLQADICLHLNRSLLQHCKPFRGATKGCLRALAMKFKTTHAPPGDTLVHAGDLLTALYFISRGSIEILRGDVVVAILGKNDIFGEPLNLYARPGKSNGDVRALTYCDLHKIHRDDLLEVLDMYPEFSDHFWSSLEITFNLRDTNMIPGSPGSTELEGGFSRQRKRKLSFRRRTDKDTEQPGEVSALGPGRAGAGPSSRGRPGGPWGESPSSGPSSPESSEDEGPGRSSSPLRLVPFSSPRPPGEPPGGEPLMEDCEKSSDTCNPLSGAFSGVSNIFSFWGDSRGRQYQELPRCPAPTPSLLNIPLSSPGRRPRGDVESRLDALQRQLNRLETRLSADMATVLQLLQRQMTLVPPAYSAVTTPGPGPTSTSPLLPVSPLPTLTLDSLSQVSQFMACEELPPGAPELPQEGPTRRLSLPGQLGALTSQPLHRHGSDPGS

hr Beta1, sequence (P08588 whole entry): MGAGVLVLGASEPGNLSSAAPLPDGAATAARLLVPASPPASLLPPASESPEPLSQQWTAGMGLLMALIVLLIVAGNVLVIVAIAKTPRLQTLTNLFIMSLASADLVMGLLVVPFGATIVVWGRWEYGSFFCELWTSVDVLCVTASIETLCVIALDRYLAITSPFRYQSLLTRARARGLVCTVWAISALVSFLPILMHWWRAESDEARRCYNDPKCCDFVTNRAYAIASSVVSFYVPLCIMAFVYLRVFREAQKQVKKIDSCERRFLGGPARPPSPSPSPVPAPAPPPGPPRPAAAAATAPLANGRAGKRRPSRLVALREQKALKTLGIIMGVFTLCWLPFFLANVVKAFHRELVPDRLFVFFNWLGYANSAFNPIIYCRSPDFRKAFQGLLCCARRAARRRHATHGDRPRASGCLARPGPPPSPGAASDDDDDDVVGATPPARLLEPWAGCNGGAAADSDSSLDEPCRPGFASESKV
hr D1 ag, sequence (P21728 whole entry): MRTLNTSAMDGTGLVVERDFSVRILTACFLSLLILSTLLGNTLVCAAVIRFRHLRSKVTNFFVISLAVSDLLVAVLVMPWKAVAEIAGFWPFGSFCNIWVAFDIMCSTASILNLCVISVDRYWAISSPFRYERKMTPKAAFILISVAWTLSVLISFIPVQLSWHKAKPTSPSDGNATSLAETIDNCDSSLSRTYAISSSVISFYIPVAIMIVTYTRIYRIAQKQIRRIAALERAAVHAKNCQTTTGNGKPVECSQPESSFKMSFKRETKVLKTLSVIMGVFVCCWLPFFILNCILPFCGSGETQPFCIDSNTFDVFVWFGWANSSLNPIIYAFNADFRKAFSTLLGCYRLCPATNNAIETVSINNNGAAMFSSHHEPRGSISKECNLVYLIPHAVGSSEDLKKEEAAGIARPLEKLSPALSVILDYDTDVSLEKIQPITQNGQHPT
hr M3, sequence (P20309 whole entry): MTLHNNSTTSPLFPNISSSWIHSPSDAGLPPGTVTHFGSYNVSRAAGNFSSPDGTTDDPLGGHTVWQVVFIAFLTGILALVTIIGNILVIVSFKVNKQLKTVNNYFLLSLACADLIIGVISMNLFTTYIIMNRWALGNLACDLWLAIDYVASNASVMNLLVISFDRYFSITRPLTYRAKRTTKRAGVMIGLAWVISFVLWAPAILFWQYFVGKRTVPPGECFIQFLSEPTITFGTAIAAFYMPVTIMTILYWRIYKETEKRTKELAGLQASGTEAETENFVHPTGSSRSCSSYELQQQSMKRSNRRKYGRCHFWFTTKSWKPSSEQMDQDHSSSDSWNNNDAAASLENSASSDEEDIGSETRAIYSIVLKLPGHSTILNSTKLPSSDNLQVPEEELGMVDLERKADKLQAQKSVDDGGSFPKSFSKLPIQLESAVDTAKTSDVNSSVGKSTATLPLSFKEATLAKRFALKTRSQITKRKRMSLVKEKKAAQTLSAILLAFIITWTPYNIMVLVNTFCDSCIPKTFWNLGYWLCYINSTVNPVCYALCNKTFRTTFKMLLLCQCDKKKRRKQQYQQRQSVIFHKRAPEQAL

For `Cc1nc(C)c(C(=O)Nc2ccc(F)c(-c3nc4ncc(-c5ncccc5C)cn4n3)c2)o1` [compound 1, N-(4-Fluoro-3-(6-(3-methylpyridin-2-yl)-[1,2,4]triazolo[1,5-a]pyrimidin-2-yl)phenyl)-2,4-dimethyloxazole-5-carboxamide], the solubility kinetic [1] was 17 µM (≈ 7.54 µg/mL), the abundance human [2] was “+++ (+++ > 75%)” and the EC50/IC50 (hr Al2A ag; hr Al2A ag) was > 30 µM. For the same molecule, the inhibition at 10 µM (hr Al2A ag; read-out: % inh/act @ 10 µM) was 0%, the inhibition at 30 µM (hr Al2A ag; read-out: % inh/act @ 30 µM) was 0% and the EC50/IC50 (hr Alpha2C; hr Alpha2C) was > 30 µM. The inhibition at 10 µM (hr Alpha2C; read-out: % inh/act @ 10 µM) was 13%, the inhibition at 30 µM (hr Alpha2C; read-out: % inh/act @ 30 µM) was 32% and the EC50/IC50 (hr Beta1; hr Beta1) was > 30 µM. The inhibition at 10 µM (hr Beta1; read-out: % inh/act @ 10 µM) was 6%, the inhibition at 30 µM (hr Beta1; read-out: % inh/act @ 30 µM) was 10% and the EC50/IC50 (hr D1 ag; hr D1 ag) was > 30 µM. The inhibition at 10 µM (hr D1 ag; read-out: % inh/act @ 10 µM) was 6%, the inhibition at 30 µM (hr D1 ag; read-out: % inh/act @ 30 µM) was 2% and the EC50/IC50 (hr M3; hr M3) was > 30 µM. The inhibition at 10 µM (hr M3; read-out: % inh/act @ 10 µM) was 17%, the inhibition at 30 µM (hr M3; read-out: % inh/act @ 30 µM) was 25% and the EC50/IC50 (ov COX-1; ov COX-1) was > 30 µM. For the same molecule, the inhibition at 10 µM (ov COX-1; read-out: % inh/act @ 10 µM) was 16%, the inhibition at 30 µM (ov COX-1; read-out: % inh/act @ 30 µM) was 14% and the “% inh/act @ 10 µM” value (h PDE3) was 6%. The “% inh/act @ 30 µM” value (h PDE3) was 4% and the pIC50 (hERG) was < 4.52.
